Here are results for one substance from patent US6846182B1, “Dental bleaching composition and method” (priority 1996, dated 2005).

How the values of this assay were obtained:
Fluoride has been used in dentistry to reduce sensitivity for many years. Often, when the root surface of teeth is exposed to the oral cavity due to gingival recession, these teeth become sensitive to hot, cold and sometimes sweets. […] This post bleaching pain usually has an onset of about 2 hours post-bleaching and lasts for 2 or more days.

Regarding neutral sodium fluoride, for the setting “applied 5 minutes post bleaching”, the post-bleaching pain level entry is given as “often diminished”. Besides, the post-bleaching sensitivity result (applied at least 10 minutes after bleaching is completed) was “almost completely eliminated”.
